# Assay results: ChEMBL document CHEMBL1137606, “Synthesis of novel phytosphingosine derivatives and their preliminary biological evaluation for enhancing radiation therapy” (2007)
# Calls of active or inactive are those of the source. No cut-off for these calls is given here.
# Legend:
# Jurkat [1] = experiment: Cytotoxicity against gamma irradiated human Jurkat cells at 10 uM after 30 mins relative to control; assay type: functional
# Jurkat [2] = experiment: Cytotoxicity against human Jurkat cells at 10 uM after 30 mins; assay type: functional, cell-based
SMILES,Activity (Jurkat [1]),Activity (Jurkat [2])
CCCCCCCCCCCCCC[C@@H](O)[C@@H](O)[C@H](CO)NC(=O)CCCC(=O)OCC,19%,
CCCCCCCCCCCCCC[C@@H](O)[C@@H](O)[C@H](CO)NC(=O)COCc1ccccc1,11%,
CCCCCCCCCCCCCC[C@@H](O)[C@@H](O)[C@H](CO)NC(=O)CCCCCCCCC(=O)OC,inactive,Active
CCCCCCCCCCCCCC[C@@H](O)[C@@H](O)[C@@H](N)CO,inactive,Active
CCCCCCCCCCCCCC[C@@H](O)[C@@H](O)[C@H](CO)NC(=O)CCC(=O)OCC,12%,
